{"source": "paper PMC11359831", "about": "“Stepwise Structural Simplification of the Dihydroxyanthraquinone Moiety of a Multitarget Rhein-Based Anti-Alzheimer Lead to Improve Drug Metabolism and Pharmacokinetic Properties” (Pharmaceutics, 2024)", "key": {"[1]": {"biological_target": "T1, Aβ42 aggregation (Homo sapiens, UniProt P05067)", "T1 construct": "expressed in transfected cells; host or cells: E. coli BL21 (DE3) bearing pET28a-Aβ42", "T1 sequence (P05067 672-713)": "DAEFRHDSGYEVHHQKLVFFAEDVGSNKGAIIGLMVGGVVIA", "experiment": "Aβ42 aggregation inhibition in genetically modified E. coli cells (Th-S fluorescence)", "type": "cell-based, Escherichia coli", "conditions": "live E. coli cells overexpressing Aβ42", "experimental": "For Aβ42 overexpression, M9 minimal medium (10 mL) containing kanamycin (50 μg/mL) was added to a colony of E. coli BL21 (DE3) competent cells, bearing the pET28a plasmid (Novagen, Inc., Madison, WI, USA), which contains the DNA sequence encoding for Aβ42. After overnight culture, the volume necessary to obtain a 1:500 dilution was added to fresh M9 minimal medium that contained kanamycin (50 μg/mL) and thioflavin-S (Th-S, 250 µM).\n(§1) For Aβ42 overexpression, the corresponding E. coli cell cultures were kept growing overnight (37 °C; 250 rpm) until they reached an OD600 = 0.6. These cultures (980 μL) were added to a mixture of 10 μL of a solution of the new compounds in DMSO and 10 μL of 100 mM isopropyl 1-thio-β-D-galactopyranoside (IPTG), to reach a final compound concentration of 10 μM. The same procedure was used for tau overexpression but employing 10 μL of 25% arabinose instead of IPTG. The resulting E. coli cultures were kept growing overnight (37 °C; 1400 rpm) using an Eppendorf Thermomixer (Hamburg, Germany). To prepare a negative control for the assay, showing the highest amount of the amyloidogenic protein, the same quantity of DMSO, without the compounds to be tested, was added to the sample. With the double purpose of obtaining positive controls devoid of the amyloidogenic proteins and assessing the potential intrinsic toxicity of the new compounds, we also prepared samples that had not been treated with either IPTG or arabinose (non-induced samples).\n(§2) To assess the inhibitory activity of compounds 4–7 on Aβ42 and tau aggregation within E. coli cells, a fluorescence assay was employed, using Th-S ([…] stock solution, T1892, Sigma, St. Louis, MO, USA) in double-distilled water (Milli-Q system, Millipore, Bay City, MI, USA) and an Aminco Bowman Series 2 luminescence spectrophotometer (Aminco-Bowman AB2, SLM Aminco, Rochester, NY, USA), working at 25 °C in the wavelength range of 460–600 nm, with λex = 445 nm, slit widths of 4 nm, and λem = 485 nm. The results are given as the average of nine independent experiments, each performed in triplicate."}, "[2]": {"biological_target": "T2, tau aggregation (Homo sapiens, UniProt P10636)", "T2 construct": "expressed in transfected cells; host or cells: E. coli BL21 (DE3) bearing pTARA and pRKT42", "T2 sequence (P10636 other isoform, or with tags, fused parts or gaps)": "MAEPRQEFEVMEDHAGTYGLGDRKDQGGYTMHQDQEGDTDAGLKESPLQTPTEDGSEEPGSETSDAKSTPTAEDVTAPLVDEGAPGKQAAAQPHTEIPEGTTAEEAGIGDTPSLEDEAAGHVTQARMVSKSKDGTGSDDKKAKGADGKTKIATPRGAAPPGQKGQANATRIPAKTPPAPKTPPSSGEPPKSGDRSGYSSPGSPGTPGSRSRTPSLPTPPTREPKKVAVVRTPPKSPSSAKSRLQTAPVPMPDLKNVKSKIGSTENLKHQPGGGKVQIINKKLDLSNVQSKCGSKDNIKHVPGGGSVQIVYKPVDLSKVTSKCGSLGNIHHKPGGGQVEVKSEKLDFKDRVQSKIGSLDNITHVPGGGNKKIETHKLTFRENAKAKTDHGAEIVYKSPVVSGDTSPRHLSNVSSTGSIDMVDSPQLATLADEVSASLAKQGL", "experiment": "Tau aggregation inhibition in genetically modified E. coli cells (Th-S fluorescence)", "type": "cell-based, Escherichia coli", "conditions": "live E. coli cells overexpressing tau", "experimental": "For tau overexpression, M9 minimal medium (10 mL) containing glucose (0.5%), ampicillin (50 μg/mL), chloramphenicol (12.5 μg/mL), and E. coli BL21 (DE3) cells bearing the pTARA plasmid, which carries the RNA polymerase gene of the T7 phage (T7RP) under control of the PBAD promoter, and subsequent transformation with the pRKT42 vector were used instead. In this case, the overnight culture for a 1:500 dilution was added to fresh M9 minimal medium containing glucose (0.5%), chloramphenicol (12.5 μg/mL), ampicillin (50 μg/mL), and Th-S (250 µM).\nas §1, §2"}, "[3]": {"biological_target": "T3, human recombinant BACE-1 (hBACE-1) (Homo sapiens, UniProt P56817)", "T3 construct": "purchased Invitrogen, Carlsbad, CA, USA", "T3 sequence (P56817 46-501)": "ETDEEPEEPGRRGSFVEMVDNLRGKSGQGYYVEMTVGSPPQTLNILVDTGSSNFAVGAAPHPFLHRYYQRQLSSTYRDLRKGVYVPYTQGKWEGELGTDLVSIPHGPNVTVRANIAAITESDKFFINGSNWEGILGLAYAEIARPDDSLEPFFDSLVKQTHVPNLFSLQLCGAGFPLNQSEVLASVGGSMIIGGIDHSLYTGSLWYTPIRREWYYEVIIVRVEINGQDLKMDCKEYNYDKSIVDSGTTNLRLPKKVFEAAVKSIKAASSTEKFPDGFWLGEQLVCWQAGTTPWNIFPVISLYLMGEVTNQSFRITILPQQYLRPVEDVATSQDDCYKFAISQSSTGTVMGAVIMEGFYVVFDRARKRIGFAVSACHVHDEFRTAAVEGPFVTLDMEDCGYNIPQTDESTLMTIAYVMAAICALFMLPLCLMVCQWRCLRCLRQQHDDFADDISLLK", "experiment": "In vitro hBACE-1 inhibition (fluorometric method)", "type": "biochemical", "experimental": "The inhibition of human recombinant BACE-1 (hBACE-1) (Invitrogen, Carlsbad, CA, USA) by hybrids 4–7 was evaluated by a fluorometric method. The substrate (Panvera peptide, 10 μL, 250 nM final concentration) was added to a solution (10 μL) of hybrids 4–7 or buffer in control wells (20 mM sodium acetate at pH 4.5, with 0.1% w/v CHAPS). After the addition of the enzyme (10 μL, 12.91 mU), the assay solution was incubated for 1 h at 37 °C. Thereafter, STOP solution (10 μL, 2.5 M sodium acetate) was added and the fluorescence was read at […]. The DMSO concentration in the assay solution was kept <5% (v/v) to ensure no significant loss of BACE-1 activity. The background signal, determined in control wells with all the components of the assay but BACE-1, was subtracted. The fluorescence intensities in the presence of increasing concentrations or in the absence of hybrids 4–7 were compared to calculate the percent of enzyme inhibition produced by the compounds, by applying the following expression: 100 − (IFi/IFo × 100), in which IFi and IFo are the fluorescence intensities in the presence and in the absence of the compounds, respectively. Additionally, the IC50 values were calculated (GraphPad Prism 4.03 software, GraphPad Software Inc., San Diego, CA, USA) and are given as the mean ± SEM of at least two experiments, each performed in triplicate."}, "[4]": {"conditions": "PAMPA-BBB, drugs used for assay validation", "protocol": "The parallel artificial membrane permeability assay for the blood–brain barrier (PAMPA-BBB) [41] was used to assess the in vitro brain permeability of the new compounds. For the assay, the compounds were dissolved in mixtures of PBS and ethanol (70:30)."}, "[5]": {"experiment": "physchem", "conditions": "37 °C, aqueous buffer, kinetic from dmso stock", "protocol": "The resulting solutions were incubated at 37 °C. After 2 h incubation, the samples were read using a BMG LABTECH NEPHELOstar Plus laser nephelometer (Ortenberg, Germany)."}}, "data": [{"smiles": "O=C(NCCCCCCCCNc1c2c(nc3cc(Cl)ccc13)CCCC2)c1ccc2nc(-c3ccc(Cl)cc3)c3c(c2c1)NCCC3", "note": "[DP128, reference compound]", "values": [{"measurement": "Aβ42 Aggregation % inh. @10 µM", "setting": "[1]", "value": "78.1 ± 1.7", "unit": "%"}, {"measurement": "Tau Aggregation % inh. @10 µM", "setting": "[2]", "value": "69.9 ± 0.7", "unit": "%"}]}, {"smiles": "O=c1c(O)c(-c2cc(O)c(O)c(O)c2)oc2cc(O)cc(O)c12", "note": "[Myr, myricetin, reference compound]", "values": [{"measurement": "IC50", "setting": "[3]", "value": "4.18 ± 0.5", "unit": "µM"}]}, {"smiles": "CN1C(C(=O)Nc2ccccn2)=C(O)c2ccccc2S1(=O)=O", "note": "[Piroxicam, reference compound]", "values": [{"measurement": "Experimental Pe Value", "setting": "[4]", "value": "2.2 ± 0.1 10^−6 cm s^−1"}]}, {"smiles": "CC(=O)[C@H]1CC[C@H]2[C@@H]3CCC4=CC(=O)CC[C@]4(C)[C@H]3CC[C@]12C", "note": "[Progesterone, reference compound]", "values": [{"measurement": "solubility at 2 h", "setting": "[5]; Solubility", "value": 5.9, "unit": "µM"}]}, {"smiles": "C[C@H]1O[C@@H](O[C@H]2[C@@H](O)C[C@H](O[C@H]3[C@@H](O)C[C@H](O[C@H]4CC[C@@]5(C)[C@H](CC[C@@H]6[C@@H]5C[C@@H](O)[C@]5(C)[C@@H](C7=CC(=O)OC7)CC[C@]65O)C4)O[C@@H]3C)O[C@@H]2C)C[C@H](O)[C@@H]1O", "note": "[digoxin, reference compound]", "values": [{"measurement": "solubility at 2 h", "setting": "[5]", "value": 86.3, "unit": "µM"}]}]}
